Test results taken from patent publication US9834549B2, “3,3-disubstituted-(8-aza-bicyclo[3.2.1]OCT-8-yl)-[5-(1H-pyrazol-4-yl)-thiophen-3-yl]-methanones as inhibitors of 11 (β)-HSD1” (The University Of Edinburgh, priority 2010, dated 2017).
Read-outs that look alike come from different tables or passages of the source.

Key:
human 11β-HSD1 = target: T1, human 11β-HSD1 (Homo sapiens, UniProt P28845); assay: Cellular in vitro 11β-HSD1 enzyme inhibition assay (SPA, HEK293/11β-HSD1 cells); type: cell-based
T1 construct: stably transfected with a construct containing the full-length gene coding for the human 11β-HSD1 enzyme; expressed in transfected cells; host or cells: HEK293 (stably transfected, HEK293/11β-HSD1)
T1 sequence (P28845 whole entry): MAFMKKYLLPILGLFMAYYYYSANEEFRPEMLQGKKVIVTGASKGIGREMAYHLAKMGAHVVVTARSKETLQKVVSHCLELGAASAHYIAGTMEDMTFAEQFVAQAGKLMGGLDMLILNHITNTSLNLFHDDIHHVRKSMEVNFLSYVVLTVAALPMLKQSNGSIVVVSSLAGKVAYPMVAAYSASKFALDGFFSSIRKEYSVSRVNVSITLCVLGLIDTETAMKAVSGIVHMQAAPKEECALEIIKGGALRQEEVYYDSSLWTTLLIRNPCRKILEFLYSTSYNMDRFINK
Experimental: Compounds were assessed by a Scintillation Proximity Assay (SPA) performed according to the following protocol:
HEK293 cells were stably transfected with a construct containing the full-length gene coding for the human 11β-HSD1 enzyme to create HEK293/11β-HSD1 cells. Cells were routinely cultured in DMEM containing 10% calf foetal serum, 1% glutamine, and 1% penicillin and streptomycin. Prior to assay, cells were plated at 2×10^4 cells/well in 96-well poly-D-Lys coated flat-bottomed microplates and incubated in 5% CO2, 95% O2 at 37° C. for 24 hours. The media in each well was removed immediately before assay.
Compounds to be tested were dissolved in DMSO at 10 mM and serially diluted into water containing 10% DMSO. Diluted compounds at a volume of 10 μL were added to wells of a 96-well V-bottomed microplate. A solution of DMEM, 1% glutamine, 1% penicillin and streptomycin, and 22 nM tritiated cortisone was prepared and 90 μL added to each well of the assay plate. This solution (100 μL/well) was transferred to the plate containing the cells. The plate was then incubated in 5% CO2, 95% O2 at 37° C. for 2 hours.
Following this incubation, 50 μL of the assay solution was transferred to each well of a 96-well scintillation microplate. A mixture consisting of anti-mouse YSi SPA beads, pre-mixed with anti-cortisol antibody in assay buffer (50 mM Tris.HCl, pH 7.0; 300 mM NaCl; 1 mM EDTA, 5% glycerol) was prepared and 50 μL added to each well of the scintillation microplate. An adhesive strip was applied to the microplate and the plate gently shaken for at least 2 hours at room temperature, and then spun briefly on a low speed centrifuge. The plate was read on a scintillation counter suitable for 96-well microplates. For the calculation of percentage inhibition, a series of wells were added to the plate that represented the assay maximum and the assay minimum: one set that contained substrate without cells (minimum) and another set that contained substrate and cells without any compound (maximum).
The calculation of median inhibitory concentration (IC50) values for the compounds was performed using GraphPad Prism® software. Dose-response curves for each compound were plotted as fractional inhibition and data fitted to the four parameter logistic equation.

human 11β-HSD2 = target: T2, human 11β-HSD2 (Homo sapiens, UniProt P80365); assay: Cellular in vitro 11β-HSD2 enzyme inhibition assay (CHO cells); type: cell-based; conditions: CHO cells transfected with human 11β-HSD2
T2 construct: CHO cells stably transfected with the full-length gene coding for human 11β-HSD2 were used; expressed in transfected cells; host or cells: CHO (stably transfected)
T2 sequence (P80365 1-405): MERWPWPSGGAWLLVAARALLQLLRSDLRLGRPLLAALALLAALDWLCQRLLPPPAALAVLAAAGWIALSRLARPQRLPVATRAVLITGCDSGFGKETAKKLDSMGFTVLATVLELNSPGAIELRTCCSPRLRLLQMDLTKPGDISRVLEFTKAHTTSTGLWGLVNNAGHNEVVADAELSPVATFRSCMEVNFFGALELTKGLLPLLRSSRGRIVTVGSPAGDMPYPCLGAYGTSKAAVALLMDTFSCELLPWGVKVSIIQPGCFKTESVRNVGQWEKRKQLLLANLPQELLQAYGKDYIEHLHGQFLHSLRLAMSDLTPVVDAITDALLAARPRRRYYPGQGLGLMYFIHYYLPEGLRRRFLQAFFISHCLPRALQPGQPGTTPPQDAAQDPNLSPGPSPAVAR
Experimental: For measurement of inhibition of 11β-HSD2, CHO cells stably transfected with the full-length gene coding for human 11β-HSD2 were used. Assays were carried out in 96-well microplates containing 1×10^5 cells/well. Controls and compounds were plated as above, so that the final DMSO concentration in each well was 1%. To initiate the assay, 90 μL of a solution of HAMS F-12 medium containing 1% glutamine, 1% penicillin and streptomycin, and 22 nM tritiated cortisol was added to each well of the assay plate. The plate was then incubated in 5% CO2, 95% O2 at 37° C. for 16 hours.
The assay solutions were transferred to glass tubes and […] added to each tube. Each tube was vortexed thoroughly and the upper layer containing the tritiated steroid transferred to a fresh glass tube. The solvent was evaporated by placing the tubes in a heating block at 65° C. under a stream of nitrogen gas. 20 μL ethanol was added to each of the dried samples and vortexed briefly. Each sample was applied to a silica TLC plate and the plate dried. The plate was placed vertically in a glass tank containing 92% chloroform: 8% ethanol and the solvent allowed to rise up the plate. The plate was dried, placed in an imaging cassette, and overlayed with a tritium imaging plate for 1-2 days. The amount of enzyme inhibition in each sample was determined by measuring the intensity of the substrate and product spots using a phospho-imager. IC50 values for inhibitors were determined as described above for 11β-HSD1.

[1] = In vitro human liver microsomal stability assay; type: in vitro ADME; conditions: human liver microsomes
Experimental: To predict in vivo metabolism of compounds, the stability of compounds incubated with human liver microsomes in vitro was determined. Human liver microsome preparations were stored at −80° C. and thawed on ice prior to use. The thawed microsomes were diluted to a concentration of 2 mg/mL in 50 mM sodium phosphate, pH 7.4. Reference and test compounds were prepared as 10 mM stocks in 100% DMSO and diluted to 1 mM in acetonitrile before use. Each compound was tested in triplicate as follows:
4 μL of test or reference compound was added to a well of a 24-well microplate and 0.5 mL of 4 mM NADPH added. The plate was then transferred to a shaker for 10 minutes at room temperature. 30 μL of the compound/NADPH solution was transferred to the well of a 96-well microplate and incubated at 37° C. for 5 minutes. 30 μL of human liver microsomes (pre-incubated at 37° C. for 5 minutes) was added to the well containing the compound/NADPH solution and the plate incubated for the selected period of time (typically 0 or 30 minutes). The reaction was stopped by adding 60 μL of ice cold […] trichloroacetic acid. The plate was centrifuged at 1000 rpm for 5 minutes at room temperature and the supernatant transferred to the well of a new 96-well V-bottomed microplate for mass spectrometric analysis.
(§1) Samples were analyzed by TSQ Quantum Discovery Tandem Mass Spectrometer and Surveyor Liquid Chromatogram (Thermo, Hemel-Hempstead, UK). 10 μL of each sample was injected in a mobile phase consisting of 60%:40% methanol:5 mM ammonium acetate at a flow rate of 0.5 mL/minute. The column used was a BDS hypersil, C18, 50×2.1 mm with a 5 μm particle size.
(§2) Each compound was tuned with a spray voltage of 3000 V and a capillary temperature of 300° C. and values for tube lens, CID and product ions were determined.
The peak area for each compound was measured in triplicate for the 0 and 30 minute samples and the average of each was reported. The percentage remaining after 30 minutes was calculated as the average peak area of the sample after 30 minutes divided by the average peak area at 0 minutes. The RSD was 10% or lower for each compound.

[2] = Oral exposure and tissue distribution in rats; type: in vivo, male Sprague Dawley rats; conditions: rat, oral 10 mg/kg; for Cmax: male, Sprague Dawley, plasma, read-out: Plasma Cmax (maximum plasma concentration)
Experimental: The circulating plasma levels and tissue distribution of certain compounds were determined following oral administration of compound (10 mg/kg) to male Sprague Dawley rats. Rats (n=3 per group) were culled at 1, 4 and 6 hours post dosing and trunk blood and tissues (liver, adipose and brain) excised. Blood samples at 30 minutes and 2 hours post dosing were taken by tail nick from the 4 hour and 6 hour rats respectively.
Compound was triple extracted from plasma (prepared from blood by a high speed centrifugation step) spiked with 1 μg of a standard compound using ethyl acetate. Extracts were dried under nitrogen and re-suspended in 60% methanol/40% ammonium acetate (5 mM).
A known weight of tissue was homogenized in 3 volumes Krebs buffer. Compound was triple extracted with ethyl acetate from the supernatant of a low speed spin spiked with 1 μg of a standard compound. Extracts were dried under nitrogen and re-suspended in 60% methanol/40% ammonium acetate (5 mM).
as §1, with “Samples from plasma and tissue” for “Samples”
as §2
The peak area for each compound and for the internal standard was determined and the concentration of compound per gram of tissue or mL of plasma was calculated by comparison of the peak area ratio to a standard curve.

[3] = HEK293, potency groups, read-out: IC50 for 11β-HSD1 (HEK293)
[4] = HEK293 cells transfected with human 11β-HSD1, first value in cell, read-out: IC50 for 11β-HSD1 (HEK293)
[5] = HEK293 cells, value marked * in brackets, read-out: IC50 for 11β-HSD1 (HEK293), (*) average of at least two individual experiments

| Compound | IC50 (human 11β-HSD1; [3]) [nM] | IC50 (human 11β-HSD1; [4]) [nM] | IC50 (human 11β-HSD1; [5]) [nM] | IC50 (human 11β-HSD2) [nM] | % Parent Remaining at 30 min [1] | Cmax [2] [ng/mL] | Liver Cmax (maximum liver concentration) [2] |
| --- | --- | --- | --- | --- | --- | --- | --- |
| O=C(c1csc(-c2cn[nH]c2)c1)N1C2CCC1CC(O)(c1ccccn1)C2 (stereo not shown) [XX-01] | ≤ 100 | 21 | 28 | > 10000 | +++ (61-100% +++) | > 1000 | ++ (3001-5000 ++) |
| O=C(c1csc(-c2cn[nH]c2)c1)N1C2CCC1CC(F)(c1ncccc1Cl)C2 (stereo not shown) [XX-13, [3-(3-Chloro-pyridin-2-yl)-3-fluoro-8-aza-bicyclo[3.2.1]oct-8-yl]-[5-(1H-pyrazol-4-yl)-thiophen-3-yl]-methanone] | ≤ 100 | 31 |  | > 10000 | ++ (31-60% ++) |  |  |
| N#CC1(c2ccccn2)CC2CCC(C1)N2C(=O)c1csc(-c2cn[nH]c2)c1 (stereo not shown) [XX-18] | ≤ 100 | 15 |  | > 10000 | +++ (61-100% +++) |  |  |
| O=C(c1csc(-c2cn[nH]c2)c1)N1C2CCC1CC(O)(c1cnccn1)C2 (stereo not shown) [XX-24] | ≤ 100 | 37 |  | > 10000 |  | 501 to 1000 | ++ (3001-5000 ++) |
| O=C(c1csc(-c2cn[nH]c2)c1)N1C2CCC1CC(O)(c1cscn1)C2 (stereo not shown) [XX-36] | ≤ 100 |  |  |  | +++ (61-100% +++) | > 1000 | ++ (3001-5000 ++) |
| O=C(c1csc(-c2cn[nH]c2)c1)N1C2CCC1CC(F)(c1cccnn1)C2 (stereo not shown) [XX-43] | ≤ 100 | 47 | 50 | > 10000 | +++ (61-100% +++) |  |  |
| O=C(c1csc(-c2cn[nH]c2)c1)N1CCC(O)(c2ncccc2Cl)CC1 [YY-02] | ≤ 100 | 49 | 41 | > 10000 | ++ (31-60% ++) | > 1000 | +++ (>5001 +++) |
| O=C(c1csc(-c2cn[nH]c2)c1)N1CCC(O)(c2ccncc2Cl)CC1 [YY-06] | ≤ 100 | 28 |  | > 10000 | ++ (31-60% ++) |  |  |
